From PubChem BioAssay (NCI) come the findings set out here.

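Five compound concentrations were applied to cells in 96-well plates for 48 hours; endpoints were derived by simple linear interpolation of the resulting dose-response curve. At the TGI there is no net growth.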

In one experiment the test system is MDA-N. The experiment is described as follows: inhibition of tumour cell growth, NCI panel, 48 h.
Compound `CCCCCCCCC/C=C1\CCC(CN2CCOCC2)C1=O` (stereo not given) yielded a TGI of 12.7 µM.
Same read-out and setting: the result for `CC(=O)OC1=CC(n2cc(F)c(=O)[nH]c2=O)OC(C)C1=O` (stereo not given) reads above 100 µM.
Same read-out and setting: to `CSc1nc(NC2OCC(OC(C)=O)C(OC(C)=O)C2OC(C)=O)c(N=CC=Nc2c(NC3OCC(OC(C)=O)C(OC(C)=O)C3OC(C)=O)nc(SC)[nH]c2=O)c(=O)[nH]1` (stereo not given) belongs above 100 µM; to `OCc1ccc(-c2ccc(-c3ccc(CO)s3)o2)s1`, 39.6 µM.
The same measure, in the same setting: the result for `CC(C)C(C)/C=C\C(C)C1CCC2C3=CC=C4CC(O)CCC4(C)C3CCC21C` (stereo not given) reads above 70.5 µM.

A further experiment concerns COLO 205 colon. The experiment can be described thus: inhibition of tumour cell growth, NCI panel, 48 h.
In turn, `O=c1cc(-c2ccccc2)oc2cc(OCCCOc3ccc4c(=O)cc(-c5ccccc5)oc4c3)ccc12` yielded a TGI above 100 µM.
Still for that read-out and setting: the result for `COc1cc2c(c(OC)c1OC)-c1ccc(OC)c(=O)cc1C(NC(=O)c1ccc(N=[N+]=[N-])cc1)CC2` (stereo not given) reads 0.0627 µM; that for `Cn1cnc([N+](=O)[O-])c1Sc1nc2ccccc2[nH]1`, 23.1 µM; that for `CCCCCCN(CCCCCC)C(=O)Cc1c2n(c3ccccc13)Cc1ccccc1-2`, above 100 µM.
The same measure, in the same setting: to `CCCCCCCCC/C=C1\CCC(CN2CCOCC2)C1=O` (stereo not given) belongs 11.2 µM; to `CC(=O)OC1COC(n2ccc3cc(Br)c([N+](=O)[O-])cc32)C(OC(C)=O)C1OC(C)=O` (stereo not given), 50 µM.
Turning to `CC(=O)OC1=CC(n2cc(F)c(=O)[nH]c2=O)OC(C)C1=O` (stereo not given), the TGI is above 100 µM.
Turning to `CCOC(=O)NC(=O)c1cn(CCCO)c(=O)[nH]c1=O`, the TGI was above 100 µM.
In the case of `CN(C)c1nc(=Nc2ccc(N=c3nc(N(C)C)ss3)cc2)ss1`, the TGI was determined as 70.6 µM.
Same read-out and setting: to `CSc1nc(NC2OCC(OC(C)=O)C(OC(C)=O)C2OC(C)=O)c(N=CC=Nc2c(NC3OCC(OC(C)=O)C(OC(C)=O)C3OC(C)=O)nc(SC)[nH]c2=O)c(=O)[nH]1` (stereo not given) belongs above 100 µM; to `CCc1cc(Cc2cc(CC)c(NC(=O)C(=O)Cc3ccccn3)c(CC)c2Cl)c(Cl)c(CC)c1NC(=O)C(=O)Cc1ccccn1`, above 100 µM; to `C[Si](C)(C)C1(Sc2ccccc2)SCCCS1`, above 100 µM.
With `OCc1ccc(-c2ccc(-c3ccc(CO)s3)o2)s1`, the TGI was found to be 3.01 µM.
In turn, `c1ccc(COc2cccc3ccc[n+](Cc4ccccc4)c23)cc1` showed a TGI of 23.9 µM.
In turn, `O=S1(=O)OCCOS(=O)(=O)C1Br` displayed a TGI above 100 µM.
In turn, `CCOC(=O)C(=C=C=C(c1ccccc1)c1ccccc1)C(=O)OCC` gave a TGI of 32.5 µM.
Still for that read-out and setting: to `CC1=CC(O)(c2ccc(-c3ccccc3Cl)cc2)OC1=O` (stereo not given) belongs above 100 µM; to `C/C(=N\NC(=S)NC(CCC(=O)O)C(=O)O)c1ccccn1` (stereo not given), above 100 µM; to `C#CC1(O)CCC2C3CCc4cc(Oc5nc(F)nc(-c6c7ccccc7c7sc8ccccc8n67)n5)ccc4C3CC[C@@]21C` (stereo not given in full), above 100 µM.
The same measure, in the same setting: to `Cc1ccc(NC(=O)c2cc3cc(N=Nc4ccccc4C(=O)O)ccc3oc2=O)cc1` belongs above 100 µM; to `COc1ccc(S(=O)(=O)NNS(C)(=O)=O)cc1`, above 100 µM.
On to `CC(C)C(C)/C=C\C(C)C1CCC2C3=CC=C4CC(O)CCC4(C)C3CCC21C` (stereo not given), for which the TGI is above 61.6 µM.
On the same count and under the same terms, to `CCN1c2ccccc2C(C(SC)S(=O)(=O)c2ccc(C)cc2)c2c1[nH]c(=O)n(C)c2=O` (stereo not given) belongs above 100 µM; to `COC(OC)C(C)CC(=O)N(C)C` (stereo not given), above 100 µM.

Another experiment deals with DMS 273 small cell lung. The experiment is described as follows: inhibition of tumour cell growth, NCI panel, 48 h.
`O=c1cc(-c2ccccc2)oc2cc(OCCCOc3ccc4c(=O)cc(-c5ccccc5)oc4c3)ccc12`: the TGI is above 100 µM.
On to `CC(C)=Cc1cc(C(=O)Nc2ccc(Cl)c(Cl)c2)nc(N)n1`, for which the TGI is above 100 µM.
On the same count and under the same terms, the result for `Cn1cnc([N+](=O)[O-])c1Sc1nc2ccccc2[nH]1` reads 3.43 µM.
On the same count and under the same terms, to `CCCCCCN(CCCCCC)C(=O)Cc1c2n(c3ccccc13)Cc1ccccc1-2` belongs above 100 µM.
For `CCCCCCCCC/C=C1\CCC(CN2CCOCC2)C1=O` (stereo not given), the TGI is 5.08 µM.
`CC(=O)OC1COC(n2ccc3cc(Br)c([N+](=O)[O-])cc32)C(OC(C)=O)C1OC(C)=O` (stereo not given) had a TGI above 100 µM.
Same read-out and setting: to `CC(=O)OC1=CC(n2cc(F)c(=O)[nH]c2=O)OC(C)C1=O` (stereo not given) belongs above 100 µM.
In turn, `CCOC(=O)NC(=O)c1cn(CCCO)c(=O)[nH]c1=O` had a TGI above 100 µM.
`CN(C)c1nc(=Nc2ccc(N=c3nc(N(C)C)ss3)cc2)ss1`: the TGI was above 64 µM.
Compound `CSc1nc(NC2OCC(OC(C)=O)C(OC(C)=O)C2OC(C)=O)c(N=CC=Nc2c(NC3OCC(OC(C)=O)C(OC(C)=O)C3OC(C)=O)nc(SC)[nH]c2=O)c(=O)[nH]1` (stereo not given) showed a TGI above 100 µM.
Compound `CCc1cc(Cc2cc(CC)c(NC(=O)C(=O)Cc3ccccn3)c(CC)c2Cl)c(Cl)c(CC)c1NC(=O)C(=O)Cc1ccccn1` displayed a TGI above 100 µM.
Compound `C[Si](C)(C)C1(Sc2ccccc2)SCCCS1` displayed a TGI above 100 µM.
Still for that read-out and setting: the result for `OCc1ccc(-c2ccc(-c3ccc(CO)s3)o2)s1` reads above 49.5 µM; that for `c1ccc(COc2cccc3ccc[n+](Cc4ccccc4)c23)cc1`, 17.7 µM.
In turn, `O=S1(=O)OCCOS(=O)(=O)C1Br` yielded a TGI above 100 µM.
Same read-out and setting: the result for `CCOC(=O)C(=C=C=C(c1ccccc1)c1ccccc1)C(=O)OCC` reads 45.5 µM; that for `CC1=CC(O)(c2ccc(-c3ccccc3Cl)cc2)OC1=O` (stereo not given), above 100 µM.
On the same count and under the same terms, the result for `C#CC1(O)CCC2C3CCc4cc(Oc5nc(F)nc(-c6c7ccccc7c7sc8ccccc8n67)n5)ccc4C3CC[C@@]21C` (stereo not given in full) reads above 100 µM; that for `Cc1ccc(NC(=O)c2cc3cc(N=Nc4ccccc4C(=O)O)ccc3oc2=O)cc1`, above 100 µM.
Compound `COc1ccc(S(=O)(=O)NNS(C)(=O)=O)cc1` displayed a TGI above 100 µM.
Consider `O=C(/C=C\c1ccc(Cl)c(Cl)c1)c1ccc(Cl)cc1Cl`, for which the TGI amounted to 34.8 µM.
Same read-out and setting: the result for `CCN1c2ccccc2C(C(SC)S(=O)(=O)c2ccc(C)cc2)c2c1[nH]c(=O)n(C)c2=O` (stereo not given) reads above 100 µM.
Same read-out and setting: to `COC(OC)C(C)CC(=O)N(C)C` (stereo not given) belongs above 100 µM.

Another experiment relates to ACHN renal. The experiment can be described thus: inhibition of tumour cell growth, NCI panel, 48 h.
With `O=c1cc(-c2ccccc2)oc2cc(OCCCOc3ccc4c(=O)cc(-c5ccccc5)oc4c3)ccc12`, the TGI is above 100 µM.
Still for that read-out and setting: to `COc1cc2c(c(OC)c1OC)-c1ccc(OC)c(=O)cc1C(NC(=O)c1ccc(N=[N+]=[N-])cc1)CC2` (stereo not given) belongs above 100 µM.
On to `Clc1ccc(C(c2ccc(Cl)cc2)c2ccccn2)cc1`, for which the TGI came out at 45.9 µM.
As to `CC(C)=Cc1cc(C(=O)Nc2ccc(Cl)c(Cl)c2)nc(N)n1`, the TGI was above 100 µM.
On the same count and under the same terms, the result for `Cn1cnc([N+](=O)[O-])c1Sc1nc2ccccc2[nH]1` reads 59.9 µM.
Still for that read-out and setting: the result for `CCCCCCN(CCCCCC)C(=O)Cc1c2n(c3ccccc13)Cc1ccccc1-2` reads above 100 µM; that for `CCCCCCCCC/C=C1\CCC(CN2CCOCC2)C1=O` (stereo not given), 16.5 µM.
Compound `CC(=O)OC1COC(n2ccc3cc(Br)c([N+](=O)[O-])cc32)C(OC(C)=O)C1OC(C)=O` (stereo not given) returned a TGI above 100 µM.
Compound `CC(=O)OC1=CC(n2cc(F)c(=O)[nH]c2=O)OC(C)C1=O` (stereo not given) gave a TGI above 100 µM.
`CCOC(=O)NC(=O)c1cn(CCCO)c(=O)[nH]c1=O`: the TGI was above 100 µM.
On the same count and under the same terms, the result for `CN(C)c1nc(=Nc2ccc(N=c3nc(N(C)C)ss3)cc2)ss1` reads above 100 µM.
`CSc1nc(NC2OCC(OC(C)=O)C(OC(C)=O)C2OC(C)=O)c(N=CC=Nc2c(NC3OCC(OC(C)=O)C(OC(C)=O)C3OC(C)=O)nc(SC)[nH]c2=O)c(=O)[nH]1` (stereo not given) showed a TGI above 88.7 µM.
The same measure, in the same setting: the result for `CCc1cc(Cc2cc(CC)c(NC(=O)C(=O)Cc3ccccn3)c(CC)c2Cl)c(Cl)c(CC)c1NC(=O)C(=O)Cc1ccccn1` reads above 100 µM.
